One molecule from ChEMBL document CHEMBL4828771, “Discovery and Development of a Potent, Selective, and Orally Bioavailable CHK1 Inhibitor Candidate: 5-((4-((3-Amino-3-methylbutyl)amino)-5-(trifluoromethyl)pyrimidin-2-yl)amino)picolinonitrile” (J Med Chem, 2021) can be followed below.

The subject of series [1] is RPMI-8226. Nature of the series: Antiproliferative activity against human RPMI-8226 cells incubated for 72 hrs by CCK8 assay. Format: functional, cell-based.
The target of series [2] is T1, Serine/threonine-protein kinase DCLK3 (Homo sapiens) (UniProt Q9C098).
T1 sequence (whole entry): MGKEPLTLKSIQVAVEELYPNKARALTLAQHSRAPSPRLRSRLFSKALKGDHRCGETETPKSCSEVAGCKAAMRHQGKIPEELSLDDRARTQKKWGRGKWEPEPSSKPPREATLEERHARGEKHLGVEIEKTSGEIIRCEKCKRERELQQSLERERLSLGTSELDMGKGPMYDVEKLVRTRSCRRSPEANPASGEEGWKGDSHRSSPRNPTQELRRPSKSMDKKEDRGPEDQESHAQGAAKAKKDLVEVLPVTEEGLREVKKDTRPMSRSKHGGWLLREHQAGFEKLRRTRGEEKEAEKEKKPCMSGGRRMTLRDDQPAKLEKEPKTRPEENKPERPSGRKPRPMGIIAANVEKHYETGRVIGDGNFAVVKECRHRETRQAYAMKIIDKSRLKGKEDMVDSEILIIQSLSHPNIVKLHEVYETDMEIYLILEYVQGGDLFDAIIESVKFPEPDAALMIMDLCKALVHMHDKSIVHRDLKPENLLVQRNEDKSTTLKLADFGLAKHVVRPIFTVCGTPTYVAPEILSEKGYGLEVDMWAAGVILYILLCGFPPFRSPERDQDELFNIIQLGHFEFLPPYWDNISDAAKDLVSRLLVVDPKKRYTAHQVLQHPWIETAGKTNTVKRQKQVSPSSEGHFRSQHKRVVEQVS
The series can be described thus: Inhibition of wild type human DCAMKL3 (M1 to G289 residue) expressed in bacterial expression system assessed as protein activity at 0.5 uM relative to control. Details: scale not given: the % may be the effect or the level left.

Series [3] has as its target Ribosomal protein S6 kinase alpha-2 (Homo sapiens) (UniProt Q15349). The series can be described thus: Inhibition of wild type human RSK3 expressed in bacterial expression system assessed as protein activity at 0.5 uM relative to control. Details: scale not given: the % may be the effect or the level left.
Series [4] in a line: Selectivity ratio of Antiproliferative activity against human RPMI-8226 cells to Antiproliferative activity against human RPMI-8226 cells in presence of gemcitabine. Format: functional.
Series [5] concerns MV4-11. Nature of the series: Antitumor activity against human MV4-11 cells xenografted in mouse assessed as inhibition of tumor growth at 30 mg/kg, po dosed for 21 days measured twice every week relative to control. The class given is functional. The settings on record: MV4-11, po, 504 h, time 21 day, read-out: TGI. A general note: A xenograft is tissue or cells of one species grown in another, often human tumour cells in immunodeficient mice.

For series [6], the system named is Mus musculus. The series can be described thus: Induction of S296 phosphorylation in tumor of mouse xenografted with human HT-29 cells at 30 mg/kg, po dosed 5 days/week for 22 days cotreated with gemcitabine by Western blot analysis. The class given is functional, organism-based. The settings on record: time 22.0 day.
Series [7] is described as follows: Selectivity ratio of Antiproliferative activity against human HT-29 cells to Antiproliferative activity against human HT-29 cells in presence of gemcitabine. Format: functional.
Series [8] relates to Z-138. The series can be described thus: Antiproliferation activity against human Z138 cells assessed as reduction in cell viability incubated for 72 hrs by MTS assay. The class given is functional, cell-based. The settings on record: Z-138, 72 h.
In series [9] the test system is HT-29. Nature of the series: Antiproliferative activity against human HT-29 cells incubated for 72 hrs by CCK8 assay. Format: functional, cell-based.
Series [10] concerns MV4-11. The series can be described thus: Antiproliferation activity against human MV4-11 cells assessed as reduction in cell viability incubated for 72 hrs by MTS assay. Format: functional, cell-based. The note with it: MV4-11, 72 h. For orientation: Tetrazolium assays rely on reduction of a dye to a coloured formazan, in cell work by metabolically active cells.
For series [11], the system named is A549. Nature of the series: Antiproliferative activity against human A549 cells incubated for 72 hrs in presence of gemcitabine by CCK8 assay. The class given is functional, cell-based.
The test system of series [12] is RPMI-8226. The series can be described thus: Antiproliferative activity against human RPMI-8226 cells incubated for 72 hrs in presence of gemcitabine by CCK8 assay. The class given is functional, cell-based.
Series [13] has as its system MV4-11. The series can be described thus: Antitumor activity against human MV4-11 cells xenografted in po dosed mouse assessed as inhibition of tumor growth administered for 21 days measured twice every week relative to control. Format: functional, organism-based. The settings on record: time 21.0 day.
Series [14] is described as follows: Tmax in ICR mouse at 20 mg/kg, po measured after 0.083 to 48 hrs by LC-MS/MS analysis. The note with it: in vivo, time 0.083-48 hrs. Format: ADME, organism-based.
Series [15] relates to Mus musculus. Nature of the series: Downregulation of S296 phosphorylation in tumor of mouse xenografted with human HT-29 cells at 30 mg/kg, po dosed 5 days/week for 22 days by Western blot analysis. Format: functional, organism-based. The note with it: time 22.0 day.
For series [16], the system named is MV4-11. The series can be described thus: Antitumor activity against human MV4-11 cells xenografted in mouse assessed as inhibition of tumor growth at 5 mg/kg, po dosed for 21 days measured twice every week relative to control. The class given is functional. The settings on record: MV4-11, po, 504 h, time 21 day, read-out: TGI.
Series [17] concerns HT-29. Nature of the series: Antiproliferative activity against human HT-29 cells incubated for 72 hrs in presence of gemcitabine by CCK8 assay. The class given is functional, cell-based.
Series [18] has as its target T2, Serine/threonine-protein kinase Chk1 (Homo sapiens) (UniProt O14757).
T2 sequence (whole entry): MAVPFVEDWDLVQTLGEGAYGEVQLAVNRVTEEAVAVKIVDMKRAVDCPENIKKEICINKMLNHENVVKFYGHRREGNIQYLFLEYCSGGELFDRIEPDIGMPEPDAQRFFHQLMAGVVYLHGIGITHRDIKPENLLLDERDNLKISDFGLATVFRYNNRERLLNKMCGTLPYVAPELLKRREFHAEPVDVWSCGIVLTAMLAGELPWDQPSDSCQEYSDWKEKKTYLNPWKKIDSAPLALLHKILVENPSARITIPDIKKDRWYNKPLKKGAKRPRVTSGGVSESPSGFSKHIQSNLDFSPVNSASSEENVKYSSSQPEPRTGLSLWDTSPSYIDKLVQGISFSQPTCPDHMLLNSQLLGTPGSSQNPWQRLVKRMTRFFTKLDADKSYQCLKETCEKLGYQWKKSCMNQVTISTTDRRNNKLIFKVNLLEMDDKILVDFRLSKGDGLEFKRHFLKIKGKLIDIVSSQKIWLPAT
Nature of the series: Inhibition of CHK1 in human HT-29 cells assessed as […] residue at 1.1 uM incubated for 12 hrs by Western blot analysis. Format: cell-based. A general note: A western blot detects proteins with antibodies after separation by electrophoresis.

For series [19], the system named is Mus musculus. The series can be described thus: Downregulation of S296 phosphorylation in tumor of mouse xenografted with human HT-29 cells at 30 mg/kg, po dosed 5 days/week for 22 days cotreated with gemcitabine by Western blot analysis. The class given is functional, organism-based. The note with it: time 22.0 day.
Series [20] addresses hERG (KCNH2) (Homo sapiens, UniProt Q12809). Nature of the series: Inhibition of human ERG expressed in HEK293 cells at 10 uM by patch-clamp technique relative to control. The class given is cell-based. The note with it: HEK293 cells that express hERG.
The target of series [21] is T2, Serine/threonine-protein kinase Chk1 (Homo sapiens). The series can be described thus: Inhibition of CHK1 in human HT-29 cells assessed as […] residue at 0.12 to 3.3 uM incubated for 12 hrs in presence of gemcitabine by Western blot analysis. The note with it: dose 0.12-3.3 µM. The class given is cell-based.
Series [22] has as its system HT-29. Nature of the series: Induction of gamma-H2A.X in human HT-29 cells at 0.12 to 3.3 uM incubated for 12 hrs in presence of gemcitabine by Western blot analysis. The class given is functional, cell-based. The note with it: dose 0.12-3.3 µM.
Series [23] concerns the target Calcium/calmodulin-dependent protein kinase type II subunit beta (Homo sapiens) (UniProt Q13554). The series can be described thus: Inhibition of wild type human CAMK2B (M1 to Q380 residues) expressed in bacterial expression system assessed as protein activity at 0.5 uM relative to control. On the set-up: scale not given: the % may be the effect or the level left.

Series [24] has as its system HT-29. The series can be described thus: Antitumor activity against human HT-29 cells xenografted in mouse assessed as reduction in tumor growth by measuring T/C ratio at 30 mg/kg, po dosed 5 days/week for 22 days measured twice every week. Format: functional. The note with it: time 22 day.

The source made the active and inactive calls. The rule behind the calls is not given here.

Chain of Calcium/calmodulin-dependent protein kinase type II subunit beta (Homo sapiens) (Q13554 whole entry, the tested form may be a part): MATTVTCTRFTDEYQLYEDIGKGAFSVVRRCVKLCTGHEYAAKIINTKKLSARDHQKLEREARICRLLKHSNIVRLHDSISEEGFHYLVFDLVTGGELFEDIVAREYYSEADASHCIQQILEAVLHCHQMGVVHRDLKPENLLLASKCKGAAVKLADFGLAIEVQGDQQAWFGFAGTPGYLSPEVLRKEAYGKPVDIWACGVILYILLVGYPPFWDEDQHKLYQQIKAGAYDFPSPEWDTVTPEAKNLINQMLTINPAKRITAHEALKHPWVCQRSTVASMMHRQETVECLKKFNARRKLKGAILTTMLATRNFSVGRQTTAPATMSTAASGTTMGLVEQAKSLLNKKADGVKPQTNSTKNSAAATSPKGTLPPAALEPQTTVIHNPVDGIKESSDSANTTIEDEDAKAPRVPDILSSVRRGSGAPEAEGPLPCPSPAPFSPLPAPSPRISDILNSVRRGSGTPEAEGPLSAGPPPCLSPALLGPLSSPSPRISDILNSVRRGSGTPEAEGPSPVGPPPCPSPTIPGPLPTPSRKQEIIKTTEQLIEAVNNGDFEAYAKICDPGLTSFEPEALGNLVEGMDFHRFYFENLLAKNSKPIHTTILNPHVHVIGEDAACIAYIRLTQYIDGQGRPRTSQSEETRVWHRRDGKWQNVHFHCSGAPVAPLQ
Chain of Ribosomal protein S6 kinase alpha-2 (Homo sapiens) (Q15349 whole entry): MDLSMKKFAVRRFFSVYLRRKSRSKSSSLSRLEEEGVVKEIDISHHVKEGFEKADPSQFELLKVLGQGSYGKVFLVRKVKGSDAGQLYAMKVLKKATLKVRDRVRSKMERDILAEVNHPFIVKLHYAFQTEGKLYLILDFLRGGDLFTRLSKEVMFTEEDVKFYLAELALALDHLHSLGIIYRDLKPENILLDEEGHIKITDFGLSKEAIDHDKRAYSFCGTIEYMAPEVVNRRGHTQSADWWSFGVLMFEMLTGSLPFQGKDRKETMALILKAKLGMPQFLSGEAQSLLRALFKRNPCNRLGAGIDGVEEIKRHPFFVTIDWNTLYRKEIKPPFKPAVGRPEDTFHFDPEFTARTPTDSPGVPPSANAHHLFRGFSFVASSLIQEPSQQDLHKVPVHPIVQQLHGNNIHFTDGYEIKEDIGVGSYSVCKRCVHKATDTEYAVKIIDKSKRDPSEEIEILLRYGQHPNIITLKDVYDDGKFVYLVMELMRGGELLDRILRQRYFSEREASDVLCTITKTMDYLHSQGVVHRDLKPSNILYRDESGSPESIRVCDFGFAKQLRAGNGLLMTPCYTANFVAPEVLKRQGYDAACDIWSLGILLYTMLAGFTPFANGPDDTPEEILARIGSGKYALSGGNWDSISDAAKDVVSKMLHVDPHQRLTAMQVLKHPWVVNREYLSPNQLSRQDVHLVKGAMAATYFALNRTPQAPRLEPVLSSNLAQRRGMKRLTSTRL
Chain of hERG (KCNH2) (Q12809 whole entry): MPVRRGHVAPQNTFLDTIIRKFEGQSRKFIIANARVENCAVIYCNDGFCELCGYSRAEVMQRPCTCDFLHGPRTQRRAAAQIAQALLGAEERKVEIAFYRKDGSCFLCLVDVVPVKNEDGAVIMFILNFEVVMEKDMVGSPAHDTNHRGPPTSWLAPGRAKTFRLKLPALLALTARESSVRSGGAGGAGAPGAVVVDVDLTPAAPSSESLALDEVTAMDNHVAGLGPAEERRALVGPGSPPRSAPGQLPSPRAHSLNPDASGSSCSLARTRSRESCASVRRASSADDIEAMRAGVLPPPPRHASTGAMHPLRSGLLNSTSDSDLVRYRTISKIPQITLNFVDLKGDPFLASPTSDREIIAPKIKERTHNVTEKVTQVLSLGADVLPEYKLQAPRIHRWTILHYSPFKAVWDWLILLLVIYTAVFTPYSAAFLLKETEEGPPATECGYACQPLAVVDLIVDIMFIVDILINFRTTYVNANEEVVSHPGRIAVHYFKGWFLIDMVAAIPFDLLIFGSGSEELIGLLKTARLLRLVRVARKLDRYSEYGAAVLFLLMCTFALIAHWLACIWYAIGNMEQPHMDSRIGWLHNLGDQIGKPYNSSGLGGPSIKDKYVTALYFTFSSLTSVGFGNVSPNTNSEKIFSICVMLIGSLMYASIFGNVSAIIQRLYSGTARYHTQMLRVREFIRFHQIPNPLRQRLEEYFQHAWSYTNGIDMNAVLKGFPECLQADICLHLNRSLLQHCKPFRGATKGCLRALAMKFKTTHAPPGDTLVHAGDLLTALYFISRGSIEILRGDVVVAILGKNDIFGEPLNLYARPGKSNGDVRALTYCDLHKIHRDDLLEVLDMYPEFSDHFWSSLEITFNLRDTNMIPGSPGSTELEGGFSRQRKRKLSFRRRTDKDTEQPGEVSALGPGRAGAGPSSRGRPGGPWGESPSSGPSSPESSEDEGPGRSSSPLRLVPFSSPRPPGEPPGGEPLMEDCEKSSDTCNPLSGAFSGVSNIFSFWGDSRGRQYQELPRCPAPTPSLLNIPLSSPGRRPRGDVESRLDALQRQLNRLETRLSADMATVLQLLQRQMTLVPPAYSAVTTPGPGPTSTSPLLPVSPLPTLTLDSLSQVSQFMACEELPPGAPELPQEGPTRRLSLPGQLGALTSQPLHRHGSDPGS

For the molecule `CC(C)(N)CCNc1nc(Nc2ccc(C#N)nc2)ncc1C(F)(F)F`, the outcome in series [1], in series [6], in series [9], in series [11], in [12] and in series [15] was Active. The result in [17], in series [18], in [19], in series [21] and in [22] was Active. Also, the Activity in series [2] is 7%; in series [3], 14%; in series [13] it was “Dose-Dependent Effect”; in series [23] it was 18%. The Ratio in series [4] and in series [7] was 100 in each case. Further, the inhibition in vivo at 30 mg/kg in series [5] turned out to be 94.9%. The half-inhibitory concentration (IC50) is 3280 nM in series [8] and 140 nM in [10]. Further, in series [14], the time to peak (Tmax) came to 4 h. In addition, the inhibition in vivo at 5 mg/kg in [16] was 51.6%. Moreover, in series [20], the inhibition at 10 µM was found to be 35.5%. Also, in [24], the T/C was 69.05%.

By IC50 is commonly meant the concentration needed to halve the response being measured. By Tmax is commonly meant the time from dosing to the highest level. One may read the inhibition as the drop in the measured response relative to a control, in per cent. One may read the T/C as the ratio of treated to control.
